{"source": "patent US20080039383A1", "about": "“Methods and compositions for inhibiting ER-stress induced cholesterol/triglyceride accumulation” (HAMILTON CIVIC HOSPITAL RESEARCH DEVELOPMENT INC., priority 1999, published 2008)", "key": {"[1]": {"system": "GRP78/BiP and GADD153 mRNA", "assay": "Northern blot analysis of ER stress response genes in HepG2 cells", "format": "cell-based, human", "settings": "4 h, 5 mM amino acids, 2.5 mM DTT, 10 μg/ml tunicamycin", "experimental": "(§1) Cell culture and treatment conditions. Primary human umbilical vein endothelial cells (HUVEC) were isolated by collagenase treatment of human umbilical veins (Jaffe, E. A, 1973) and cultured in EC medium (M199 medium, 20 μg/ml endothelial cell growth factor, 90 μg/ml porcine intestinal heparin, 100 μg/ml penicillin and 100 μg/ml streptomycin) containing 20% fetal bovine serum (Hyclone; Logan, Utah) in a humidified incubator at 37° C. with 5% CO2. Cells from passages 2-4 were used in these studies. Human aortic smooth muscle cells (HASMC) were purchased from Cascade Biologicals (Portland, Oreg.) and cultured in M231 media (Cascade Biologicals) containing smooth muscle cell growth supplement (Cascade Biologicals). The human hepatocarcinoma cell line, HepG2, was obtained from the American Type Culture Collection (ATCC; Rockville, Md.) and cultured in A-DMEM containing 10% fetal bovine serum. DL-homocysteine, L-methionine, DL-cysteine, glycine, DL-dithiothreitol ([…]), tunicamycin, A23187 and β-mercaptoethanol were purchased from Sigma (St. Louis, Mo.). These compounds were prepared fresh in culture medium, sterilized by filtration and added to the cell cultures.\n(§2) Preparation of Total RNA. […] ."}, "[2]": {"system": "SREBP, HMG-CoA reductase, IPP isomerase (IPPI) and FPP synthase mRNA", "assay": "Northern blot analysis of cholesterol/triglyceride biosynthesis and uptake gene mRNA in cultured human cells", "format": "cell-based", "settings": "for expression of cholesterol biosynthetic enzymes (Northern analysis): HUVEC and HepG2 cells; for steady-state mRNA levels of IPPI / steady-state mRNA levels of IPPI (IPP isomerase): 4 hours; for steady-state mRNA levels of IPPI: 5 mM amino acid or 2 mM DTT; for steady-state mRNA levels of IPPI (IPP isomerase): homocysteine 5 mM, DTT, β-mercaptoethanol 5 mM, tunicamycin 10 μg/ml, A23187 10 μM; for IPPI mRNA levels: 0-18 hours", "experimental": "as §1, §2"}, "[3]": {"system": "HepG2 cells", "assay": "Intracellular total cholesterol in HepG2 cells", "format": "cell-based, human", "settings": "HepG2, 0-5 mM, 24-48 h", "experimental": "(§3) Lipids are extracted with hexane:isopropanol (3:2), dried and resuspended in hexane. Colorimetric cholesterol assays is carried out using the Sigma Diagnostics Cholesterol Reagent (Sigma) to determine total cholesterol levels. Total plasma cholesterol are measured using the same assay but without the lipid extraction step.\nas §1\n(§4) Total cholesterol and triglyceride levels."}, "[4]": {"system": "HASMC", "assay": "Intracellular total cholesterol in HASMC", "format": "cell-based, human", "settings": "0-5 mM, 24-48 h", "experimental": "as §3, §1, §4"}, "[5]": {"system": "cultured cells", "settings": "cited from earlier work; for overall cell number or viability: extracellular concentrations up to 5 mM"}, "[6]": {"system": "SREBP-2", "assay": "Immunoblot of SREBP-2 forms in HepG2 cells", "format": "cell-based, human", "settings": "HepG2 cells (data not shown)", "experimental": "as §1\n(§5) Immunoblot analysis. The anti-KDEL mAb (SPA-827), which recognizes both GRP78/BiP and GRP94, was purchased from StressGen Biotechnologies (Victoria, BC). […]"}, "[7]": {"system": "HepG2 cells", "assay": "BODIPY FL LDL binding and uptake in HepG2 cells", "format": "cell-based, human", "settings": "5 mM homocysteine 8 hr", "experimental": "as §1\n(§6) Uptake of BODIPY FL LDL and image analysis. […] Images were subsequently captured and analyzed using Northern Exposure image analysis/archival software (Mississauga, ON)."}, "[8]": {"system": "HUVEC", "assay": "Intracellular total cholesterol in HUVEC", "format": "cell-based, human", "settings": "0-5 mM, 24-48 h", "experimental": "as §3\nas §1, with “These compounds were prepared fresh in culture medium, sterilized by filtration and added to the cell cultures.” left out"}, "[9]": {"system": "SREBP-1", "assay": "Immunoblot of SREBP-1 precursor and mature forms in HepG2 cells", "format": "cell-based, human", "settings": "5 mM homocysteine", "experimental": "as §1, §5"}, "[10]": {"system": "GRP78/BiP and GRP94", "assay": "Immunoblot with anti-KDEL mAb in HepG2 cells", "format": "cell-based, human", "settings": "HepG2, 5 mM homocysteine, 8, 18 and 36 h", "experimental": "as §1, §5"}, "[11]": {"system": "HUVEC", "assay": "BODIPY FL LDL / AcLDL binding and uptake in HUVEC", "format": "cell-based, human", "experimental": "as §1, §6"}, "[12]": {"system": "HASMC", "assay": "BODIPY FL LDL binding and uptake in HASMC", "format": "cell-based, human", "experimental": "as §1, §6"}, "[13]": {"settings": "HepG2 cells, 5 mM homocysteine, 0-18 h"}}, "note": "Entries after “also recorded” stand apart in the source; their conditions may differ."}
{"compound": "O[C@H](CS)[C@H](O)CS", "note": "(racemic) [DTT, DL-dithiothreitol]", "values": [{"measurement": "steady-state mRNA levels of GRP78/BiP and GADD153", "setting": "[1]", "value": "also induced the steady-state mRNA levels of GRP78/BiP and GADD153"}, {"measurement": "expression of cholesterol biosynthetic enzymes (Northern analysis)", "setting": "[2]", "value": "induce the cholesterol biosynthetic pathway in a manner similar to that of homocysteine"}, {"measurement": "steady-state mRNA levels of IPPI", "setting": "[2]; HUVEC", "value": "significantly increased IPPI mRNA levels"}, {"measurement": "steady-state mRNA levels of IPPI (IPP isomerase)", "setting": "[2]; HepG2 cells", "value": "induced the expression of IPP isomerase; also recorded: increase IPPI mRNA levels"}]}
{"compound": "NC(CS)C(=O)O", "note": "(racemic) [cysteine, DL-cysteine]", "values": [{"measurement": "total cellular cholesterol normalized to protein", "setting": "[3]", "value": "but not cysteine, increased cellular cholesterol"}, {"measurement": "total cellular cholesterol normalized to protein", "setting": "[4]", "value": "but not cysteine, increased cellular cholesterol"}, {"measurement": "steady-state mRNA levels of GRP78/BiP and GADD153", "setting": "[1]", "value": "failed to induce the expression of these ER stress response genes"}, {"measurement": "overall cell number or viability", "setting": "[5]", "value": "does not effect cell viability"}, {"measurement": "expression of cholesterol biosynthetic enzymes (Northern analysis)", "setting": "[2]", "value": "no other amino acids, including thiol-containing methionine and cysteine, have significant effects"}, {"measurement": "steady-state mRNA levels of IPPI", "setting": "[2]; HUVEC", "value": "only homocysteine and DTT significantly increased IPPI mRNA levels"}]}
{"compound": "NC(CCS)C(=O)O", "note": "(racemic) [homocysteine, DL-homocysteine]", "values": [{"measurement": "total cellular cholesterol normalized to protein", "setting": "[3]", "value": "promotes cholesterol accumulation"}, {"measurement": "total cellular cholesterol normalized to protein", "setting": "[3]; listed as Homocysteine", "value": "increased cellular cholesterol"}, {"measurement": "total cellular cholesterol normalized to protein", "setting": "[4]", "value": "promotes cholesterol accumulation"}, {"measurement": "total cellular cholesterol normalized to protein", "setting": "[4]; listed as Homocysteine", "value": "increased cellular cholesterol"}, {"measurement": "active and precursor forms of SREBP-2", "setting": "[6]", "value": "also increased"}, {"measurement": "LDL binding/uptake", "setting": "[7]", "value": "may further enhance LDL binding; also recorded: enhanced LDL uptake"}, {"measurement": "total cellular cholesterol normalized to protein", "setting": "[8]", "value": "no significant change in the total cholesterol concentration; also recorded: unchanged"}, {"measurement": "steady-state mRNA levels of GRP78/BiP and GADD153", "setting": "[1]", "value": "increased steady-state mRNA levels of GRP78/BiP and GADD153"}, {"measurement": "overall cell number or viability", "setting": "[5]", "value": "no effect on overall cell number or viability; also recorded: does not effect cell viability"}, {"measurement": "EC injury", "setting": "[5]; homocysteine concentrations up to 5 mM", "value": "do not cause EC injury"}, {"measurement": "levels of active (68 kDa) and precursor (125 kDa) forms of SREBP-1", "setting": "[9]", "value": "increased levels of both active (68 kDa) and precursor (125 kDa) forms of SREBP-1"}, {"measurement": "IPPI mRNA levels", "setting": "[2]; HASMC, 5 mM homocysteine", "value": "significantly increases IPPI mRNA levels"}, {"measurement": "IPPI mRNA levels", "setting": "[2]; HUVEC, 5 mM homocysteine", "value": "significantly increases IPPI mRNA levels"}, {"measurement": "expression of cholesterol biosynthetic pathway genes, clusterin and SREBP", "setting": "[2]; HUVEC, 1-5 mM homocysteine for as little as 2 hours", "value": "enhanced"}, {"measurement": "steady-state mRNA levels of IPPI", "setting": "[2]; HUVEC", "value": "significantly increased IPPI mRNA levels"}, {"measurement": "IPPI mRNA levels", "setting": "[2]; HepG2, 5 mM homocysteine", "value": "significantly increases IPPI mRNA levels"}, {"measurement": "steady-state mRNA levels of SREBP, HMG-CoA reductase and FPP synthase", "setting": "[2]; HepG2 cells, 5 mM homocysteine, 0, 2, 4, 8 or 18 hours", "value": "increased steady-state mRNA levels for all transcripts"}, {"measurement": "steady-state mRNA levels of HMG-CoA reductase, IPP isomerase and FPP synthase", "setting": "[2]; [13]", "value": "increased and peaked between 2 and 4 hr"}, {"measurement": "steady-state mRNA levels of SREBP-1", "setting": "[2]; [13]", "value": "increased and peaked between 2 and 4 h"}, {"measurement": "steady-state mRNA levels of IPPI (IPP isomerase)", "setting": "[2]; HepG2 cells", "value": "induced the expression of IPP isomerase; also recorded: increase IPPI mRNA levels"}, {"measurement": "mRNA levels of acetyl CoA carboxylase, fatty acid synthase and LDL receptor", "setting": "[2]; homocysteine treated HepG2 cells (data not shown)", "value": "also increased"}, {"measurement": "GRP78/BiP and GRP94 protein levels", "setting": "[10]", "value": "elevated"}, {"measurement": "LDL or AcLDL binding", "setting": "[11]; 4 hour pre-treatment with 5 mM homocysteine", "value": "no significant effect"}, {"measurement": "LDL and AcLDL binding/uptake", "setting": "[11]; 8 h incubation with 5 mM homocysteine", "value": "significant decrease in LDL and AcLDL binding; also recorded: significant decrease in LDL uptake; also recorded: similarly down-regulated"}, {"measurement": "LDL uptake", "setting": "[12]; 5 mM homocysteine 8 hr", "value": "maintained their ability to endocytose LDL"}, {"measurement": "ability to bind LDL", "setting": "[12]; after 18 h of incubation", "value": "no impairment"}]}
{"compound": "CNc1ccc2oc(C[C@H]3O[C@@]4(CC[C@H]3C)O[C@H]([C@H](C)C(=O)c3ccc[nH]3)[C@H](C)C[C@H]4C)nc2c1C(=O)O", "note": "[A23187]", "values": [{"measurement": "expression of cholesterol biosynthetic enzymes (Northern analysis)", "setting": "[2]", "value": "induce the cholesterol biosynthetic pathway in a manner similar to that of homocysteine"}, {"measurement": "steady-state mRNA levels of IPPI (IPP isomerase)", "setting": "[2]; HepG2 cells", "value": "induced the expression of IPP isomerase; also recorded: increase IPPI mRNA levels"}]}
{"compound": "C[C@@H]1C[C@@H]([C@H](O)CC2CC(=O)NC(=O)C2)C(=O)[C@@H](C)C1", "note": "[cycloheximide]", "values": [{"measurement": "effect on induction of cholesterol/triglyceride genes by homocysteine", "setting": "[2]; data not shown", "value": "does not block the induction of these genes by homocysteine"}]}
{"compound": "NCC(=O)O", "note": "[glycine]", "values": [{"measurement": "steady-state mRNA levels of GRP78/BiP and GADD153", "setting": "[1]", "value": "failed to induce the expression of these ER stress response genes"}, {"measurement": "steady-state mRNA levels of IPPI", "setting": "[2]; HUVEC", "value": "only homocysteine and DTT significantly increased IPPI mRNA levels"}]}
{"compound": "N[C@@H](CCO)C(=O)O", "note": "[homoserine]", "values": [{"measurement": "steady-state mRNA levels of GRP78/BiP and GADD153", "setting": "[1]", "value": "failed to induce the expression of these ER stress response genes"}, {"measurement": "steady-state mRNA levels of IPPI", "setting": "[2]; HUVEC", "value": "only homocysteine and DTT significantly increased IPPI mRNA levels"}]}
{"compound": "CSCC[C@H](N)C(=O)O", "note": "[methionine, L-methionine]", "values": [{"measurement": "steady-state mRNA levels of GRP78/BiP and GADD153", "setting": "[1]", "value": "failed to induce the expression of these ER stress response genes"}, {"measurement": "expression of cholesterol biosynthetic enzymes (Northern analysis)", "setting": "[2]", "value": "no other amino acids, including thiol-containing methionine and cysteine, have significant effects"}, {"measurement": "steady-state mRNA levels of IPPI", "setting": "[2]; HUVEC", "value": "only homocysteine and DTT significantly increased IPPI mRNA levels"}]}
{"compound": "OCCS", "note": "[β-mercaptoethanol]", "values": [{"measurement": "steady-state mRNA levels of IPPI (IPP isomerase)", "setting": "[2]; HepG2 cells", "value": "induced the expression of IPP isomerase; also recorded: increase IPPI mRNA levels"}]}
{"compound": "tunicamycin", "values": [{"measurement": "steady-state mRNA levels of GRP78/BiP and GADD153", "setting": "[1]", "value": "also induced the steady-state mRNA levels of GRP78/BiP and GADD153"}, {"measurement": "expression of cholesterol biosynthetic enzymes (Northern analysis)", "setting": "[2]", "value": "induce the cholesterol biosynthetic pathway in a manner similar to that of homocysteine"}, {"measurement": "steady-state mRNA levels of IPPI (IPP isomerase)", "setting": "[2]; HepG2 cells", "value": "induced the expression of IPP isomerase; also recorded: increase IPPI mRNA levels"}]}
